Reference: ChEMBL document CHEMBL4190187, “Discovery of pyrazolopyrimidine derivatives as novel inhibitors of ataxia telangiectasia and rad3 related protein (ATR)” (Bioorg Med Chem Lett, 2017)

Experiments:
[1] = biological target: Serine/threonine-protein kinase TAO1 (Homo sapiens) (UniProt Q7L7X3); test: Inhibition of recombinant human TAO1 (1 to 327 residues) at 1 uM using myelin basic protein as substrate after 40 mins in presence of [gamma-33P]ATP by scintillation counting method
[2] = biological target: Serine/threonine-protein kinase ULK3 (Homo sapiens) (UniProt Q6PHR2); test: Inhibition of recombinant full-length human ULK3 at 1 uM using casein as substrate after 40 mins in presence of [gamma-33P]ATP by scintillation counting method
[3] = biological target: Focal adhesion kinase 1 (Homo sapiens) (UniProt Q05397); test: Inhibition of recombinant human FAK (411 to 686 residues) at 1 uM using EEEEYEEEEEEYYIIEEEEEEYEEEEEEYYEEEEEEKKKK as substrate after 40 mins in presence of [gamma-33P]ATP by scintillation counting method
[4] = biological target: Dual specificity protein kinase CLK1 (Homo sapiens) (UniProt P49759); test: Inhibition of recombinant human CLK1 (130 to end residues) at 1 uM using ERMRPRKRQGSVRRRV as substrate after 40 mins in presence of [gamma-33P]ATP by scintillation counting method
[5] = biological target: Calcium/calmodulin-dependent protein kinase type II subunit delta (Homo sapiens) (UniProt Q13557); test: Inhibition of recombinant full-length human CAMK2delta at 1 uM using […] after 40 mins in presence of [gamma-33P]ATP by scintillation counting method
[6] = tested on: Mast/stem cell growth factor receptor Kit (Homo sapiens), P10721 [D816V]; test: Inhibition of recombinant human cKit D816V mutant (544 to end residues) at 1 uM using poly(Glu,Tyr) 4:1 as substrate after 40 mins in presence of [gamma-33P]ATP by scintillation counting method
[7] = biological target: PI3K p110 alpha/p85 alpha (Mus musculus) (UniProt P26450+P42337); test: Inhibition of recombinant full-length mouse p110a E545K mutant/p85a at 1 uM using phosphatidylinositol 4,5-bisphosphate as substrate after 40 mins in presence of [gamma-33P]ATP by scintillation counting method; format: protein-complex assay
[8] = biological target: Serine/threonine-protein kinase PAK 1 (Homo sapiens) (UniProt Q13153); test: Inhibition of recombinant human PAK1 (150 to end residues) at 1 uM using RRRLSFAEPG as substrate after 40 mins in presence of [gamma-33P]ATP by scintillation counting method
[9] = tested on: Mus musculus; test: Oral bioavailability in mouse at 10 mg/kg; format: ADME, organism-based; details: in vivo
[10] = biological target: Serine/threonine-protein kinase WNK3 (Homo sapiens) (UniProt Q9BYP7); test: Inhibition of recombinant human WNK3 (1 to 434 residues) at 1 uM using myelin basic protein as substrate after 40 mins in presence of [gamma-33P]ATP by scintillation counting method
[11] = biological target: Tyrosine-protein kinase ABL2 (Mus musculus) (UniProt Q4JIM5); test: Inhibition of A562 insertion recombinant mouse ARG (27 to end residues) at 1 uM using EAIYAAPFAKKK as substrate after 40 mins in presence of [gamma-33P]ATP by scintillation counting method
[12] = biological target: Platelet-derived growth factor receptor beta (Homo sapiens) (UniProt P09619); test: Inhibition of recombinant human PDGFRbeta (557 to end residues) at 1 uM using poly(Glu,Tyr) 4:1 as substrate after 40 mins in presence of [gamma-33P]ATP by scintillation counting method
[13] = biological target: MAPK/MAK/MRK overlapping kinase (Homo sapiens) (UniProt Q9UQ07); test: Inhibition of recombinant human MOK (1 to 343 residues) at 1 uM using RSRSRSRSRSRSRSR as substrate after 40 mins in presence of [gamma-33P]ATP by scintillation counting method
[14] = biological target: Wee1-like protein kinase (Homo sapiens) (UniProt P30291); test: Inhibition of recombinant human Wee1 (214 to end residues) at 1 uM using LSNLYHQGKFLQTFCGSPLYRRR as substrate after 40 mins in presence of [gamma-33P]ATP by scintillation counting method
[15] = biological target: Tyrosine-protein kinase ABL1 (Mus musculus) (UniProt P00520); test: Inhibition of recombinant mouse Abl (27 to end residues) at 1 uM using EAIYAAPFAKKK as substrate after 40 mins in presence of [gamma-33P]ATP by scintillation counting method
[16] = biological target: Mitogen-activated protein kinase 8 (Homo sapiens) (UniProt P45983); test: Inhibition of recombinant full-length human JNK1alpha1 at 1 uM using ATF2 as substrate after 40 mins in presence of [gamma-33P]ATP by scintillation counting method
[17] = biological target: Tau-tubulin kinase 1 (Homo sapiens) (UniProt Q5TCY1); test: Inhibition of recombinant human TTBK1 (1 to 479 residues) at 1 uM using casein as substrate after 40 mins in presence of [gamma-33P]ATP by scintillation counting method
[18] = biological target: Testis-specific serine/threonine-protein kinase 4 (Homo sapiens) (UniProt Q6SA08); test: Inhibition of recombinant full-length human TSSK4 at 1 uM using KKLNRTLSFAEPG as substrate after 40 mins in presence of [gamma-33P]ATP by scintillation counting method
[19] = biological target: Ephrin type-A receptor 8 (Homo sapiens) (UniProt P29322); test: Inhibition of recombinant human EPHA8 (615 to 911 residues) at 1 uM using KTFCGTPEYLAPEVRREPRILSEEEQEMFRDFDYIADWC as substrate after 40 mins in presence of [gamma-33P]ATP by scintillation counting method
[20] = biological target: SRSF protein kinase 1 (Homo sapiens) (UniProt Q96SB4); test: Inhibition of recombinant human SRPK1 (2 to end residues) at 1 uM using RSRSRSRSRSRSRSR as substrate after 40 mins in presence of [gamma-33P]ATP by scintillation counting method
[21] = biological target: Mitogen-activated protein kinase 1 (Homo sapiens) (UniProt P28482); test: Inhibition of recombinant full-length human MAPK1 at 1 uM using myelin basic protein as substrate after 40 mins in presence of [gamma-33P]ATP by scintillation counting method
[22] = biological target: Fibroblast growth factor receptor 2 (Homo sapiens) (UniProt P21802); test: Inhibition of recombinant human FGFR2 (456 to 770 residues) at 1 uM using poly(Glu,Tyr) 4:1 as substrate after 40 mins in presence of [gamma-33P]ATP by scintillation counting method
[23] = biological target: Tyrosine-protein kinase Lyn (Mus musculus) (UniProt P25911); test: Inhibition of recombinant full-length mouse Lyn at 1 uM using poly(Glu,Tyr) 4:1 as substrate after 40 mins in presence of [gamma-33P]ATP by scintillation counting method
[24] = biological target: G protein-coupled receptor kinase 3 (Homo sapiens) (UniProt P35626); test: Inhibition of recombinant full-length human GRK3 at 1 uM using casein as substrate after 40 mins in presence of [gamma-33P]ATP by scintillation counting method
Chain of G protein-coupled receptor kinase 3 (Homo sapiens) (P35626 whole entry): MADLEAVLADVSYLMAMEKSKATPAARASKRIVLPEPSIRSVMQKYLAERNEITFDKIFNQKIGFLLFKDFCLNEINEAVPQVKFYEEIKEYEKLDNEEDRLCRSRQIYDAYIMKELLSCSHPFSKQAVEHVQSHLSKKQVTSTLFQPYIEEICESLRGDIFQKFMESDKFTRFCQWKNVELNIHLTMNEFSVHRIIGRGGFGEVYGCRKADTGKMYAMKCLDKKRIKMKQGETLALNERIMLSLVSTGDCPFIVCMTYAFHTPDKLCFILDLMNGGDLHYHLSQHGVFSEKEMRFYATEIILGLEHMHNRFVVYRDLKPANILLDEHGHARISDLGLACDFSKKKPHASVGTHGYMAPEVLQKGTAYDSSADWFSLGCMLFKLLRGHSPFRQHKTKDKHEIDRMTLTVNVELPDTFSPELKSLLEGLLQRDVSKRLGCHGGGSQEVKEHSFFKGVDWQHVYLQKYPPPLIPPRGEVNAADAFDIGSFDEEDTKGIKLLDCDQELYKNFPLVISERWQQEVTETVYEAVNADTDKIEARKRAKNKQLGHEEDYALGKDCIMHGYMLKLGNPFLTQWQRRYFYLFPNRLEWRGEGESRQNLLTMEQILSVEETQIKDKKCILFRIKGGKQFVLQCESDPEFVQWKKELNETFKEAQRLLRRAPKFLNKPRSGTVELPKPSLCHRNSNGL

Chain of Serine/threonine-protein kinase PAK 1 (Homo sapiens) (Q13153 whole entry): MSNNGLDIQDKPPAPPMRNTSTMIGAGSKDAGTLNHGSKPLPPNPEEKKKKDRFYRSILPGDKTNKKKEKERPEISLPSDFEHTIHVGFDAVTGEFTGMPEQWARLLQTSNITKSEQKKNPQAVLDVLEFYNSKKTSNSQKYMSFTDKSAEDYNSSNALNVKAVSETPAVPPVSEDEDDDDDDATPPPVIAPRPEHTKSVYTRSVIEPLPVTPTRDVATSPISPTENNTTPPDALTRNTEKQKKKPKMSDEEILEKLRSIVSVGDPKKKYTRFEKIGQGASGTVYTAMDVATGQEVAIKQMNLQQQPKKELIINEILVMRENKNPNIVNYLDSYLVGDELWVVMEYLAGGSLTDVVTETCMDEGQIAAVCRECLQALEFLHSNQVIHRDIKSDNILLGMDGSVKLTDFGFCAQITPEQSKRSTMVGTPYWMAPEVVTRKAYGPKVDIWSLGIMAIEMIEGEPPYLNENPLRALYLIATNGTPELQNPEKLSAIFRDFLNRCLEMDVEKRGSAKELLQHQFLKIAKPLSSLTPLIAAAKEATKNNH
Chain of Mitogen-activated protein kinase 8 (Homo sapiens) (P45983 whole entry, the tested form may be a part): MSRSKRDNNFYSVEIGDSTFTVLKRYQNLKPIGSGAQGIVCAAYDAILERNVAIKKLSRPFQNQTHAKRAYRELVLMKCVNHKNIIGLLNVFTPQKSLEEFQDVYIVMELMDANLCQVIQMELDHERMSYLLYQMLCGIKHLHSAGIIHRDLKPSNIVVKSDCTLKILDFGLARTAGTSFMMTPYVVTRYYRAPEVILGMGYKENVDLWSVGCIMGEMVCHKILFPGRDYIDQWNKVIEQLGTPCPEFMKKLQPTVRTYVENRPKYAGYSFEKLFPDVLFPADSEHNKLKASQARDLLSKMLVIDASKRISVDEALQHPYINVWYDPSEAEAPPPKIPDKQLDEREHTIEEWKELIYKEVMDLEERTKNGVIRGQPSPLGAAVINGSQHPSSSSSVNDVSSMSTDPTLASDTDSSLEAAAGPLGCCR
Chain of MAPK/MAK/MRK overlapping kinase (Homo sapiens) (Q9UQ07 whole entry, the tested form may be a part): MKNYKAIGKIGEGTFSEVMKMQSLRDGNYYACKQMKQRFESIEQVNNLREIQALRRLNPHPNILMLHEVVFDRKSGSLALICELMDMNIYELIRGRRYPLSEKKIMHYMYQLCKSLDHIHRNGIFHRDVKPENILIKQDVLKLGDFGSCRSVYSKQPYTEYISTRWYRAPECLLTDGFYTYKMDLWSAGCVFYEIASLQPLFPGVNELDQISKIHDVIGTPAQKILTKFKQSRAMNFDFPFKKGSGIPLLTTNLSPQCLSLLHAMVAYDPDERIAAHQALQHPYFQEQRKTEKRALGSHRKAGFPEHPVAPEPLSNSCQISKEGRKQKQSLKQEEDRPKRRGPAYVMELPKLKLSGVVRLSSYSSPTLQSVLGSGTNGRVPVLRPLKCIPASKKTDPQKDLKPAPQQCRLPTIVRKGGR
Chain of Tau-tubulin kinase 1 (Homo sapiens) (Q5TCY1 whole entry, the tested form may be a part): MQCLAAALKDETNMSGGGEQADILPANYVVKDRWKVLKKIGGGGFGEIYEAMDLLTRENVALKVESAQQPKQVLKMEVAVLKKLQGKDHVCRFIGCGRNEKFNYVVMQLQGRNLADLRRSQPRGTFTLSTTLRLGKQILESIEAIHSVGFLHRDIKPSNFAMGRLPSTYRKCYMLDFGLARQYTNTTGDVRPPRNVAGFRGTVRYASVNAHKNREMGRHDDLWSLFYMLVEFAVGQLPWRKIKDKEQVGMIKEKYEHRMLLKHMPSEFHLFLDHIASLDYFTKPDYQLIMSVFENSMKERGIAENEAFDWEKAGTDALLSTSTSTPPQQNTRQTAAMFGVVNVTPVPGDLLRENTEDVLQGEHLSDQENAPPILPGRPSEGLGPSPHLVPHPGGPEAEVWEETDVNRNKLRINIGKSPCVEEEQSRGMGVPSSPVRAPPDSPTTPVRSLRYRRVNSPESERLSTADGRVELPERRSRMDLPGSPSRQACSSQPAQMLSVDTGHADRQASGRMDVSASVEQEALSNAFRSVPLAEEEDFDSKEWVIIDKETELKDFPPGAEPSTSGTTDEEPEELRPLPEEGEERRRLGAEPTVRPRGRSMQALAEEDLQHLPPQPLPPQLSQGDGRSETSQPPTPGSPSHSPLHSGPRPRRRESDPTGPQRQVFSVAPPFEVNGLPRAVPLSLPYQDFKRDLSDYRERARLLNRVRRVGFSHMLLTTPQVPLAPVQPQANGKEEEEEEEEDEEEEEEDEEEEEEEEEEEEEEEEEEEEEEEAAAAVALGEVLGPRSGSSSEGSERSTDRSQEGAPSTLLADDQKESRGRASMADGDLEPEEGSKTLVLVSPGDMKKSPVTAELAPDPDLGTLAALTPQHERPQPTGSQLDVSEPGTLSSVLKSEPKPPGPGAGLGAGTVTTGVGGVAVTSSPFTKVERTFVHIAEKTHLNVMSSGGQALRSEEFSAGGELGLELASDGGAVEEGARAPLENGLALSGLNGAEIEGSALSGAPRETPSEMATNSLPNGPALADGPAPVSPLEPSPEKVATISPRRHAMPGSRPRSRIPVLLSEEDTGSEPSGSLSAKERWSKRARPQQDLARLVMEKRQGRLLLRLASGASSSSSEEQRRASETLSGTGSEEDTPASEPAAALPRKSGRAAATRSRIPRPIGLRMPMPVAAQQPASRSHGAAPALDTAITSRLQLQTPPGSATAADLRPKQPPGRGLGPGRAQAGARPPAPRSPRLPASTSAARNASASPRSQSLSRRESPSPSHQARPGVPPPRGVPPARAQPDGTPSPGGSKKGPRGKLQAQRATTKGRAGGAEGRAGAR
Chain of Serine/threonine-protein kinase TAO1 (Homo sapiens) (Q7L7X3 whole entry, the tested form may be a part): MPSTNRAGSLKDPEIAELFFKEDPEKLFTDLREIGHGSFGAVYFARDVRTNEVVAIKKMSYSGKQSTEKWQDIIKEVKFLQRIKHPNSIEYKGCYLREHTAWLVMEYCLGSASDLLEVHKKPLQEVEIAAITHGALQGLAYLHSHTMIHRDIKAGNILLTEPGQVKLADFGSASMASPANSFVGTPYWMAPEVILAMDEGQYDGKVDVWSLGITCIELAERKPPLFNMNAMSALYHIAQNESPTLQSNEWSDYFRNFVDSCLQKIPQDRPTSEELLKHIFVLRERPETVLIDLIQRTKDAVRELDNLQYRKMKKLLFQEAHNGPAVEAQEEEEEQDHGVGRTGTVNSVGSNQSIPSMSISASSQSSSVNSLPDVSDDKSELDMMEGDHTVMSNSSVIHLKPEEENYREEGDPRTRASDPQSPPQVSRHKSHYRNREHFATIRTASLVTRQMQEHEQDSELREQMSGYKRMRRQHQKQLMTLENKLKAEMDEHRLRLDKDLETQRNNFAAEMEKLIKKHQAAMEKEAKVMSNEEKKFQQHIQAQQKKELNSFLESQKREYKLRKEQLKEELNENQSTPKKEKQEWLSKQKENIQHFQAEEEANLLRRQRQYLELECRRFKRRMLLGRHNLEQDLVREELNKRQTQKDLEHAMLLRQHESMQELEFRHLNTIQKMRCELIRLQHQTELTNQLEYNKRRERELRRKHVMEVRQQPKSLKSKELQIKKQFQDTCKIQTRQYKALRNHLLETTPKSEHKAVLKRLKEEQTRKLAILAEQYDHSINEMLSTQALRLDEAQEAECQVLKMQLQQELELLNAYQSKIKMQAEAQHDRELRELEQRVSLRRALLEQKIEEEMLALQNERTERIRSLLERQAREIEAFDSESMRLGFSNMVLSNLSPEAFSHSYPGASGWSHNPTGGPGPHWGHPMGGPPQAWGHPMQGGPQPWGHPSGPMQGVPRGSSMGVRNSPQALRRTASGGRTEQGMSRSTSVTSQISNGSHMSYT
Chain of Tyrosine-protein kinase Lyn (Mus musculus) (P25911 whole entry): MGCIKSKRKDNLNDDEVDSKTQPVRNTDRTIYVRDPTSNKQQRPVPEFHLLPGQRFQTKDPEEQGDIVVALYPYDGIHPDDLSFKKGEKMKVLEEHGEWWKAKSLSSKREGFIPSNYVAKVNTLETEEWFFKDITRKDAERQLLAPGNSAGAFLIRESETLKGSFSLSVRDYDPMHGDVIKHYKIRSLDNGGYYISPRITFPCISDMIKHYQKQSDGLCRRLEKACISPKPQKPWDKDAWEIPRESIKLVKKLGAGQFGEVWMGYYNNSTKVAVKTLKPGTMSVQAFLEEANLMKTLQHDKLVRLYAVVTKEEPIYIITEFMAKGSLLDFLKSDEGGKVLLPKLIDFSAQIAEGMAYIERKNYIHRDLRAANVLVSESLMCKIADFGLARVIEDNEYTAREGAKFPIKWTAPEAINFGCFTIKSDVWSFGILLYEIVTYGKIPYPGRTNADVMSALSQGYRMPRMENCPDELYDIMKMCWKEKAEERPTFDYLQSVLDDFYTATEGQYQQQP

Q: CS(=O)(=O)c1ccc(-n2nc(-c3cnc4[nH]ccc4c3)c3c(N)ncnc32)cc1 was tested. Which inhibition [1] did it give?
A: 7%

Q: And the inhibition [2]?
A: 16%

Q: What about the inhibition [3] of the same compound?
A: 3%

Q: And the inhibition [4]?
A: 10%

Q: And the inhibition [5]?
A: 3%

Q: And the inhibition [6]?
A: -2%

Q: And the inhibition [7]?
A: 11%

Q: What about the inhibition [8] of the same compound?
A: 4%

Q: What about the F [9] of the same compound?
A: 2.83%

Q: What about the inhibition [10] of the same compound?
A: 43%

Q: What about the inhibition [11] of the same compound?
A: 69%

Q: And the inhibition [12]?
A: -7%

Q: What about the inhibition [13] of the same compound?
A: 59%

Q: What about the inhibition [14] of the same compound?
A: 1%

Q: And the inhibition [15]?
A: 85%

Q: What about the inhibition [16] of the same compound?
A: 1%

Q: What about the inhibition [17] of the same compound?
A: 11%

Q: And the inhibition [18]?
A: -10%

Q: What about the inhibition [19] of the same compound?
A: 15%

Q: What about the inhibition [20] of the same compound?
A: 1%

Q: And the inhibition [21]?
A: 2%

Q: And the inhibition [22]?
A: 17%

Q: What about the inhibition [23] of the same compound?
A: 45%

Q: And the inhibition [24]?
A: 1%
